Tests used:
Type in all cases: in vivo
[1] = tested on: giant foxtail (Setaria faberii); experiment: Test A pre-/postemergence plant response; details: for Foxtail, Giant plant response rating: visual injury, 0 to 100 scale (0 no effect, 100 complete control), approx. ten days
Summary of the method: (§1)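 Visually rated 0–100 injury (100 = complete control) versus untreated plants, ~10 days in greenhouse. Application pre- (soil spray, loam/sand) and postemergence (2–10 cm, 1–2 leaf stage), same timepoint.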

[2] = tested on: morningglory (Ipomoea spp.); experiment: Test A pre-/postemergence plant response; details: for Morningglory plant response rating: visual injury, 0 to 100 scale (0 no effect, 100 complete control), approx. ten days
Summary of the method: as §1

corn (Zea mays) = experiment: Test A pre-/postemergence plant response; details: for Corn plant response rating: visual injury, 0 to 100 scale (0 no effect, 100 complete control), approx. ten days
Summary of the method: as §1

[3] = tested on: pigweed (Amaranthus retroflexus); experiment: Test A pre-/postemergence plant response; details: for Pigweed plant response rating: visual injury, 0 to 100 scale (0 no effect, 100 complete control), approx. ten days
Summary of the method: as §1

[4] = tested on: barnyardgrass (Echinochloa crus-galli); experiment: Test A pre-/postemergence plant response; details: for Barnyardgrass plant response rating: visual injury, 0 to 100 scale (0 no effect, 100 complete control), approx. ten days
Summary of the method: as §1

[5] = tested on: velvetleaf (Abutilon theophrasti); experiment: Test A pre-/postemergence plant response; details: for Velvetleaf plant response rating: visual injury, 0 to 100 scale (0 no effect, 100 complete control), approx. ten days
Summary of the method: as §1

[6] = tested on: large crabgrass (Digitaria sanguinalis); experiment: Test A pre-/postemergence plant response; details: for Crabgrass, Large plant response rating: visual injury, 0 to 100 scale (0 no effect, 100 complete control), approx. ten days
Summary of the method: as §1

[7] = tested on: wheat (Triticum aestivum); experiment: Test A pre-/postemergence plant response; details: for Wheat plant response rating: visual injury, 0 to 100 scale (0 no effect, 100 complete control), approx. ten days
Summary of the method: as §1

[8] = tested on: umbrella sedge (Cyperus difformis); experiment: Test B flooded paddy test; details: for Plant response rating, Flood, Sedge, Umbrella: 250 g ai/ha, flooded paddy test, visual rating on 0 to 100 scale (0 no effect, 100 complete control) after 13 to 15 days; for Plant response rating, Sedge, Umbrella: Flood (flooded paddy test), 13 to 15 days; for Sedge, Umbrella plant response rating: Flood, 31 g ai/ha, scale 0 to 100 (0 no effect, 100 complete control)
Summary of the method: (§2)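 Post-flood paddy application: compounds are introduced into water 3 cm deep over the soil, reaching plants at the 2-leaf stage. The water level is maintained, and after 13–15 days under greenhouse conditions, response is judged by eye relative to controls, where 100 means complete control.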

rice (Oryza sativa) = experiment: Test B flooded paddy test; details: for Plant response rating, Flood, Rice: 250 g ai/ha, flooded paddy test, visual rating on 0 to 100 scale (0 no effect, 100 complete control) after 13 to 15 days; for Plant response rating, Rice: Flood (flooded paddy test), 13 to 15 days; for Rice plant response rating: Flood, 31 g ai/ha, scale 0 to 100 (0 no effect, 100 complete control)
Summary of the method: as §2

[9] = tested on: ducksalad (Heteranthera limosa); experiment: Test B flooded paddy test; details: for Plant response rating, Flood, Ducksalad: 250 g ai/ha, flooded paddy test, visual rating on 0 to 100 scale (0 no effect, 100 complete control) after 13 to 15 days; for Plant response rating, Ducksalad: Flood (flooded paddy test), 13 to 15 days; for Ducksalad plant response rating: Flood, 31 g ai/ha, scale 0 to 100 (0 no effect, 100 complete control)
Summary of the method: as §2

[10] = tested on: barnyardgrass (Echinochloa crus-galli); experiment: Test B flooded paddy test; details: for Plant response rating, Flood, Barnyardgrass: 250 g ai/ha, flooded paddy test, visual rating on 0 to 100 scale (0 no effect, 100 complete control) after 13 to 15 days; for Plant response rating, Barnyardgrass: Flood (flooded paddy test), 13 to 15 days; for Barnyardgrass plant response rating: Flood, 31 g ai/ha, scale 0 to 100 (0 no effect, 100 complete control)
Summary of the method: as §2

[11] = Postemergence, 125 g ai/ha, 0 to 100 scale where 0 is no effect and 100 is complete control
[12] = Preemergence, 125 g ai/ha, 0 to 100 scale, 0 = no effect, 100 = complete control
[13] = Preemergence, 500 g ai/ha, 0 to 100 scale, 0 = no effect, 100 = complete control
[14] = 62 g ai/ha, scale of 0 to 100 where 0 is no effect and 100 is complete control
[15] = 125 g ai/ha, scale 0 to 100, 0 is no effect, 100 is complete control

Cc1ccc(F)cc1-n1c(-c2cc(F)cc(F)c2)ncc(C(=O)C2=C(O)CCCC2=O)c1=O [Compound 183]
Plant response rating, Foxtail, Giant [1, 11]: 80 | Foxtail, Giant plant response rating ([1]; Postemergence, 500 g ai/ha): 100 | Plant response rating, Foxtail, Giant [1, 12]: 60 | Plant response rating, Foxtail, Giant [1, 13]: 90 | Plant response rating, Morningglory [2, 11]: 40 | Morningglory plant response rating ([2]; Postemergence, 500 g ai/ha): 70 | Plant response rating, Morningglory [2, 12]: 20 | Plant response rating, Morningglory [2, 13]: 50 | Plant response rating, Corn (corn (Zea mays); [11]): 10 | Corn plant response rating (corn (Zea mays); Postemergence, 500 g ai/ha): 80 | Plant response rating, Corn (corn (Zea mays); [12]): 0 | Plant response rating, Corn (corn (Zea mays); [13]): 0 | Plant response rating, Pigweed [3, 11]: 100 | Pigweed plant response rating ([3]; Postemergence, 500 g ai/ha): 100 | Plant response rating, Pigweed [3, 12]: 90 | Plant response rating, Pigweed [3, 13]: 100 | Plant response rating, Barnyardgrass [4, 11]: 60 | Barnyardgrass plant response rating ([4]; Postemergence, 500 g ai/ha): 90 | Plant response rating, Barnyardgrass [4, 12]: 20 | Plant response rating, Barnyardgrass [4, 13]: 100 | Plant response rating, Velvetleaf [5, 11]: 100 | Velvetleaf plant response rating ([5]; Postemergence, 500 g ai/ha): 100 | Plant response rating, Velvetleaf [5, 12]: 100 | Plant response rating, Velvetleaf [5, 13]: 100 | Plant response rating, Crabgrass, Large [6, 11]: 80 | Crabgrass, Large plant response rating ([6]; Postemergence, 500 g ai/ha): 100 | Plant response rating, Crabgrass, Large [6, 12]: 90 | Plant response rating, Crabgrass, Large [6, 13]: 100 | Plant response rating, Wheat [7, 11]: 50 | Wheat plant response rating ([7]; Postemergence, 500 g ai/ha): 80 | Plant response rating, Wheat [7, 12]: 0 | Plant response rating, Wheat [7, 13]: 50 | Plant response rating, Flood, Sedge, Umbrella [8]: 90 | Plant response rating, Sedge, Umbrella [8, 14]: 50 | Plant response rating, Sedge, Umbrella [8, 15]: 65 | Sedge, Umbrella plant response rating [8]: 0 | Plant response rating, Flood, Rice (rice (Oryza sativa)): 0 | Plant response rating, Rice (rice (Oryza sativa); [14]): 0 | Plant response rating, Rice (rice (Oryza sativa); [15]): 0 | Rice plant response rating (rice (Oryza sativa)): 0 | Plant response rating, Flood, Ducksalad [9]: 95 | Plant response rating, Ducksalad [9, 14]: 65 | Plant response rating, Ducksalad [9, 15]: 80 | Ducksalad plant response rating [9]: 30 | Plant response rating, Flood, Barnyardgrass [10]: 35 | Plant response rating, Barnyardgrass [10, 14]: 0 | Plant response rating, Barnyardgrass [10, 15]: 0 | Barnyardgrass plant response rating [10]: 0

O=C1CCCC(O)=C1C(=O)c1cnc(-c2ccc(F)c(F)c2)n(C2CCCCC2)c1=O [Compound 198]
Plant response rating, Foxtail, Giant [1, 11]: 60 | Foxtail, Giant plant response rating ([1]; Postemergence, 500 g ai/ha): 90 | Plant response rating, Foxtail, Giant [1, 12]: 70 | Plant response rating, Foxtail, Giant [1, 13]: 70 | Plant response rating, Morningglory [2, 11]: 100 | Morningglory plant response rating ([2]; Postemergence, 500 g ai/ha): 100 | Plant response rating, Morningglory [2, 12]: 0 | Plant response rating, Morningglory [2, 13]: 30 | Plant response rating, Corn (corn (Zea mays); [11]): 0 | Corn plant response rating (corn (Zea mays); Postemergence, 500 g ai/ha): 30 | Plant response rating, Corn (corn (Zea mays); [12]): 0 | Plant response rating, Corn (corn (Zea mays); [13]): 20 | Plant response rating, Pigweed [3, 11]: 90 | Pigweed plant response rating ([3]; Postemergence, 500 g ai/ha): 100 | Plant response rating, Pigweed [3, 12]: 10 | Plant response rating, Pigweed [3, 13]: 100 | Plant response rating, Barnyardgrass [4, 11]: 70 | Barnyardgrass plant response rating ([4]; Postemergence, 500 g ai/ha): 100 | Plant response rating, Barnyardgrass [4, 12]: 0 | Plant response rating, Barnyardgrass [4, 13]: 50 | Plant response rating, Velvetleaf [5, 11]: 100 | Velvetleaf plant response rating ([5]; Postemergence, 500 g ai/ha): 100 | Plant response rating, Velvetleaf [5, 12]: 0 | Plant response rating, Velvetleaf [5, 13]: 80 | Plant response rating, Crabgrass, Large [6, 11]: 70 | Crabgrass, Large plant response rating ([6]; Postemergence, 500 g ai/ha): 100 | Plant response rating, Crabgrass, Large [6, 12]: 10 | Plant response rating, Crabgrass, Large [6, 13]: 90 | Plant response rating, Wheat [7, 11]: 0 | Wheat plant response rating ([7]; Postemergence, 500 g ai/ha): 0 | Plant response rating, Wheat [7, 12]: 0 | Plant response rating, Wheat [7, 13]: 20 | Plant response rating, Flood, Sedge, Umbrella [8]: 80 | Plant response rating, Sedge, Umbrella [8, 14]: 20 | Plant response rating, Sedge, Umbrella [8, 15]: 80 | Sedge, Umbrella plant response rating [8]: 20 | Plant response rating, Flood, Rice (rice (Oryza sativa)): 50 | Plant response rating, Rice (rice (Oryza sativa); [14]): 20 | Plant response rating, Rice (rice (Oryza sativa); [15]): 20 | Rice plant response rating (rice (Oryza sativa)): 15 | Plant response rating, Flood, Ducksalad [9]: 95 | Plant response rating, Ducksalad [9, 14]: 50 | Plant response rating, Ducksalad [9, 15]: 85 | Ducksalad plant response rating [9]: 40 | Plant response rating, Flood, Barnyardgrass [10]: 35 | Plant response rating, Barnyardgrass [10, 14]: 0 | Plant response rating, Barnyardgrass [10, 15]: 30 | Barnyardgrass plant response rating [10]: 0

O=C1CCCC(O)=C1C(=O)c1cnc(-c2cc(F)cc(F)c2)n(CC2CCCCC2)c1=O [Compound 163]
Plant response rating, Foxtail, Giant [1, 11]: 20 | Foxtail, Giant plant response rating ([1]; Postemergence, 500 g ai/ha): 50 | Plant response rating, Foxtail, Giant [1, 12]: 0 | Plant response rating, Foxtail, Giant [1, 13]: 10 | Plant response rating, Morningglory [2, 11]: 10 | Morningglory plant response rating ([2]; Postemergence, 500 g ai/ha): 100 | Plant response rating, Morningglory [2, 12]: 0 | Plant response rating, Morningglory [2, 13]: 0 | Plant response rating, Corn (corn (Zea mays); [11]): 0 | Corn plant response rating (corn (Zea mays); Postemergence, 500 g ai/ha): 20 | Plant response rating, Corn (corn (Zea mays); [12]): 0 | Plant response rating, Corn (corn (Zea mays); [13]): 0 | Plant response rating, Pigweed [3, 11]: 80 | Pigweed plant response rating ([3]; Postemergence, 500 g ai/ha): 100 | Plant response rating, Pigweed [3, 12]: 0 | Plant response rating, Pigweed [3, 13]: 60 | Plant response rating, Barnyardgrass [4, 11]: 50 | Barnyardgrass plant response rating ([4]; Postemergence, 500 g ai/ha): 100 | Plant response rating, Barnyardgrass [4, 12]: 0 | Plant response rating, Barnyardgrass [4, 13]: 20 | Plant response rating, Velvetleaf [5, 11]: 100 | Velvetleaf plant response rating ([5]; Postemergence, 500 g ai/ha): 100 | Plant response rating, Velvetleaf [5, 12]: 10 | Plant response rating, Velvetleaf [5, 13]: 50 | Plant response rating, Crabgrass, Large [6, 11]: 60 | Crabgrass, Large plant response rating ([6]; Postemergence, 500 g ai/ha): 90 | Plant response rating, Crabgrass, Large [6, 12]: 0 | Plant response rating, Crabgrass, Large [6, 13]: 10 | Plant response rating, Wheat [7, 11]: 0 | Wheat plant response rating ([7]; Postemergence, 500 g ai/ha): 0 | Plant response rating, Wheat [7, 12]: 0 | Plant response rating, Wheat [7, 13]: 0 | Plant response rating, Sedge, Umbrella [8, 15]: 70 | Sedge, Umbrella plant response rating [8]: 70 | Plant response rating, Rice (rice (Oryza sativa); [15]): 20 | Rice plant response rating (rice (Oryza sativa)): 10 | Plant response rating, Ducksalad [9, 15]: 60 | Ducksalad plant response rating [9]: 30 | Plant response rating, Barnyardgrass [10, 15]: 0 | Barnyardgrass plant response rating [10]: 0

Source: patent US8952024B2, “Herbicidal pyrimidone derivatives” (E I du Pont de Nemours and Company, priority 2009, dated 2015)
